One data set relates to A549. Description: in vitro screen against human tumor cell line A549 (lung), GI50. In kind it is cell-based.
In a further data set the test system is DU145. Description: in vitro screen against human tumor cell line DU-145 (prostate), GI50. Conditions: read-out: GI50 DU145. In kind it is cell-based.
The next data set relates to HCT-8. Nature of the data set: in vitro screen against human tumor cell line HCT-8 (colon), GI50. In kind it is cell-based. As to conditions: read-out: GI50 HCT-8.
The next data set relates to KB. Nature of the data set: in vitro screen against human tumor cell line KB (nasopharyngeal), GI50. In kind it is cell-based. As to conditions: for GI50: read-out: GI50 KB.
The subject of a further data set is KBvin. Description: in vitro screen against KBvin cell line, GI50. In kind it is cell-based.
[1] abbreviates: Homo sapiens, A549, Example 2, Table 3, 13-aza-cryptopleurines, read-out: GI50 A549.
Where [2] appears, read: Homo sapiens, DU-145, Example 2, Table 3, 13-aza-cryptopleurines.
Where [3] appears, read: Homo sapiens, HCT-8, Example 2, Table 3, 13-aza-cryptopleurines.
[4] abbreviates: Homo sapiens, KB, Example 2, Table 3, 13-aza-cryptopleurines.
Where [5] appears, read: Homo sapiens, KBVIN, Example 3, Table 1.
Where [6] appears, read: Homo sapiens, A549, Example 3, Table 1, read-out: GI50 A549.
The mark [7] stands for this setting: Homo sapiens, DU-145, Example 3, Table 1.
The mark [8] stands for this setting: Homo sapiens, KB, Example 3, Table 1.
Where [9] appears, read: Example 2, Table 2, 12-aza-antofines, read-out: GI50 A549.
Where [10] appears, read: Example 2, Table 2, 12-aza-antofines.
Setting [11] is: Homo sapiens, DU-145, Example 2, Table 4, 12-aza-cryptopleurines.
The mark [12] stands for this setting: Homo sapiens, HCT-8, Example 2, Table 4, 12-aza-cryptopleurines.

The results in this text go back to patent US9216977B2 (The University of North Carolina at Chapel Hill, priority 2009, dated 2015).

Read-outs that look alike come from different tables or passages of the source.

For orientation: GI50 means the concentration that inhibits growth by half. As a reminder, the melting point is the temperature, or range, at which the solid turns liquid. `COc1ccc2c3c(c4cc(OC)c(OC)cc4c2c1)C[C@H]1CN(C2CC2)CCN1C3` [Compound 8h, (S)-13-aza-13N-cyclopropyl-cryptopleurine] came in with a melting point of 115 to 117 °C. Moreover, the GI50 in the data set with A549 (setting [1]) is 23200 nM. In addition, in the data set with DU145 (setting [2]), the GI50 stood at 17900 nM. Further, the GI50 with HCT-8 (setting [3]) turned out to be 13000 nM. The GI50 in the data set on KB (setting [4]) stood at 23400 nM.
`COc1ccc2c3c(c4cc(OC)c(OC)cc4c2c1)C[C@H]1CN(Cc2ccccc2)CN1C3` [3a] showed a melting point of 113 to 115 °C.
For the compound `COc1ccc2c3c(c4cc(OC)c(OC)cc4c2c1)C[C@H]1[C@@H](O)CCN1C3` [Compound 3a], the GI50 came to 3420 nM with KBvin (setting [5]), 2810 nM with A549 (setting [6]), 3200 nM in the data set on DU145 (setting [7]) and 1830 nM with KB (setting [8]).
For the compound `COc1ccc2c3c(c4cc(OC)c(OC)cc4c2c1)C[C@H]1CN(C)CN1C3` [Compound 3i, (S)-12-aza-12N-dimethylamino-antofine], the GI50 was 1670 nM in the data set with A549 (setting [9]), 2260 nM in the data set on DU145 (setting [10]), 2010 nM with HCT-8 (setting [10]) and 2310 nM in the data set on KB (setting [10]).
With “(S)-12-aza-12N-phenyl-cryptopleurine [Compound 11b]”, the GI50 was more than 40000 nM in the data set on A549 (read-out: GI50 A549), more than 40000 nM in the data set on DU145, 28400 nM in the data set on HCT-8 and more than 40000 nM in the data set with KB.
With “(14R,14aS)-11-oxo-14-hydroxyl-cryptopleurine [Compound 21b]”, the GI50 was determined as 120 nM in the data set with KBvin, 69 nM in the data set with A549 (read-out: GI50 A549), 200 nM in the data set with DU145 and 300 nM with KB.
On to `COc1ccc2c3c(c4cc(OC)c(OC)cc4c2c1)C[C@H]1CCN(CC(C)C)CN1C3` [Compound 11c, (S)-12-aza-12N-isobutyl-cryptopleurine], for which the melting point was 177 to 179 °C. In addition, the GI50 with A549 (Example 2, Table 4, 12-aza-cryptopleurines, read-out: GI50 A549) amounted to 1520 nM. In the data set with DU145 (setting [11]), the GI50 amounted to 2300 nM. The GI50 in the data set with HCT-8 (setting [12]) was 1360 nM. For the same compound, the GI50 with KB (Example 2, Table 4, 12-aza-cryptopleurines) amounted to 5060 nM.
For “(14S,14aS)-11-oxo-14-hydroxyl-cryptopleurine [Compound 21a]”, the GI50 was found to be 25 nM in the data set with KBvin, 10 nM in the data set on A549 (read-out: GI50 A549), 33 nM with DU145 and 25 nM in the data set on KB.
Consider `COc1ccc2c3c(c4cc(OC)c(OC)cc4c2c1)C[C@H]1C[C@H](O)[C@@H](O)CN1C3` [Compound 24a, (12S,13S,14aS)-12,13-dihydroxyl-cryptopleurine], for which the GI50 with KBvin (setting [5]) worked out at 2170 nM; with A549 (setting [6]), 550 nM; in the data set with DU145 (setting [7]), 600 nM; in the data set on KB (setting [8]), 840 nM.
In the same order, the values of `COc1ccc2c3c(c4cc(OC)c(OC)cc4c2c1)C[C@H]1C[C@H](OC)CCN1C3` [Compound 26b, (13R,14aS)-13-methoxy-cryptopleurine] are 66 nM, 25 nM, 56 nM and 100 nM.
Turning to `COc1ccc2c3c(c4cc(OC)c(OC)cc4c2c1)C[C@H]1CCN(C)CN1C3` [Compound 11f, (S)-12-aza-12N-dimethylamino-cryptopleurine], the GI50 in the data set on A549 (Homo sapiens, A549, Example 2, Table 4, 12-aza-cryptopleurines, read-out: GI50 A549) turned out to be 1780 nM; in the data set on DU145 (setting [11]), 2970 nM; in the data set with HCT-8 (setting [12]), 2370 nM; in the data set on KB (Homo sapiens, KB, Example 2, Table 4, 12-aza-cryptopleurines), 3080 nM.
Compound `CCN1CCN2Cc3c(c4cc(OC)c(OC)cc4c4cc(OC)ccc34)C[C@H]2C1` [Compound 8b, (S)-13-aza-13N-ethyl-cryptopleurine] returned a melting point of 83 to 85 °C. Further, the GI50 in the data set with A549 (setting [1]) worked out at 7130 nM. Moreover, in the data set on DU145 (setting [2]), the 50% growth inhibitory concentration (GI50) came out at 10500 nM. Further, in the data set on HCT-8 (setting [3]), the GI50 is 9450 nM. Moreover, the GI50 in the data set with KB (setting [4]) is 8240 nM.
With `COc1ccc2c3c(c4cc(OC)c(OC)cc4c2c1)C[C@H]1CNCCN1C3.Cl.Cl` [Compound 8a, (S)-13-aza-cryptopleurine dihydrochloride], the GI50 is 1730 nM in the data set with A549 (read-out: GI50 A549), 2080 nM in the data set on DU145, 1620 nM in the data set with HCT-8 and 1790 nM in the data set with KB.
The like results for `COc1ccc2c(c1)c1c(c3cc(OC)c(OC)cc32)C[C@H]2CCN(C3CC3)CN2C1` [Compound 11e, (S)-12-aza-12N-cyclopropyl-cryptopleurine] were, in that order, 4300 nM, 14300 nM, 5730 nM and 11470 nM.
For `COc1ccc2c3c(c4cc(OC)c(OC)cc4c2c1)C[C@H]1CCCN1C3` [R-antofine, reference compound], the 50% growth inhibitory concentration (GI50) is 25 nM with KBvin (setting [5]); 22 nM with A549 (Homo sapiens, A549, Example 1, Table 1, read-out: A549 GI50); 36 nM with KB (setting [8]). Also, in the data set on KB (Example 1, Table 1), the “KB GI50” value is on record as 36 nM.
For the compound `CC[C@@]1(O)CCN2Cc3c(c4cc(OC)c(OC)cc4c4cc(OC)ccc34)C[C@H]2C1` [Compound 25, (13R,14aS)-13-ethyl-13-hydroxyl-cryptopleurine], the GI50 was determined as 870 nM in the data set on KBvin (setting [5]), 990 nM in the data set on A549 (setting [6]), 770 nM in the data set with DU145 (setting [7]) and 920 nM with KB (setting [8]).
For `COc1ccc2c3c(c4cc(OC)c(OC)cc4c2c1)C[C@H]1CN(S(C)(=O)=O)CCN1C3` [Compound 8e, (S)-13-aza-13N-methylsulfonyl-cryptopleurine], the GI50 in the data set with A549 (read-out: GI50 A549) was 14500 nM; in the data set with DU145 it was 17000 nM; in the data set on HCT-8, 17800 nM; with KB it was 17520 nM.
Take `COc1ccc2c3c(c4cc(OC)c(OC)cc4c2c1)CC1CN(C)CN1C3` (stereo in doubt) [Compound 3k, (R)-12-aza-12N-dimethylamino-antofine]: the GI50 worked out at 11000 nM with KBvin (Homo sapiens, Table 2, cells marked (KBvin) in the HCT-8 column); 4150 nM in the data set with A549 (setting [9]); 6010 nM in the data set on DU145 (setting [10]); 2380 nM in the data set on KB (setting [10]).
As to `COc1ccc2c3c(c4cc(OC)c(OC)cc4c2c1)C[C@H]1C[C@@H](O)[C@H](O)CN1C3` [Compound 24b, (12R,13R,14aS)-12,13-dihydroxyl-cryptopleurine], the GI50 in the data set on KBvin (setting [5]) worked out at 12600 nM; with A549 (setting [6]), 14500 nM; in the data set with DU145 (setting [7]), 17100 nM; in the data set with KB (setting [8]), 17500 nM.
With `COc1ccc2c3c(c4cc(OC)c(OC)cc4c2c1)C[C@H]1CN(CC(C)C)CN1C3`, the melting point lay in the range of 93 to 95 °C.
In the case of `COC1=C[C@@H]2Cc3c(c4ccc(OC)cc4c4cc(OC)c(OC)cc34)CN2C1` [Compound 7, (S)-12-methoxy-antofine-12-ene], the GI50 worked out at 2640 nM in the data set with KBvin; 5970 nM in the data set on A549 (read-out: GI50 A549); 10300 nM in the data set on DU145; 3560 nM in the data set with HCT-8; 12000 nM with KB.
As for `COc1ccc2c3c(c4cc(OC)c(OC)cc4c2c1)C[C@H]1[C@H](O)CCN1C3` [Compound 3b], the GI50 in the data set on KBvin (setting [5]) came out at 640 nM; with A549 (setting [6]) it was 270 nM; with DU145 (setting [7]), 850 nM; in the data set on KB (setting [8]) it was 500 nM.
The like results for `COc1ccc2c3c(c4cc(OC)c(OC)cc4c2c1)C[C@H]1C[C@@H](OC)CCN1C3` [Compound 26a, (13S,14aS)-13-methoxy-cryptopleurine] were, in that order, 3690 nM, 7110 nM, 3570 nM and 5240 nM.
